Series [1] can be described thus: Binding affinity to N-terminal hexahistidine-tagged recombinant human Mint2-PARM (364 to 570 residues) in presence of probe [(TAMRA)-NNG-QNGYENPTYKFFEQMQN] by fluorescense polarization assay.
Series [2] in a line: Drug uptake in human HeLa cells assessed as drug penetration incubated for 4 hrs by CA-TAMRA based CAPA assay. The format is ADME, cell-based.
Series [3] in a line: Binding affinity to N-terminal hexahistidine-tagged recombinant human Mint2-PARM (364 to 570 residues) by ITC method. Background: In ITC the heat of successive injections is recorded.
For series [4], the system named is trypsin. Description: Stability of compound in PBS at pH 7.4 assessed as bovine pancreas trypsin mediated degradation by measuring half life at 100 uM measured after 120 mins by RP UPLC analysis. It counts as ADME, tissue-based, Bos taurus. As to conditions: cattle.
Series [5] concerns Streptomyces griseus protease. Description: Stability of compound in PBS at pH 7.4 assessed as Streptomyces griseus protease mediated degradation by measuring half life at 100 uM measured after 120 mins by RP UPLC analysis. It counts as ADME.
Series [6] has as its target proteinase K (Engyodontium album, UniProt P06873). In words: Stability of compound in PBS at pH 7.4 assessed as Parengyodontium album proteinase K mediated degradation by measuring half life at 100 uM measured after 120 mins by RP UPLC analysis. The format is ADME.
A short description of series [7]: Metabolic stability in human plasma assessed as half life at 500 uM incubated for 480 mins by RP UPLC analysis. It counts as ADME, cell-free.
For series [8], the system named is SH-SY5Y. In words: Cytotoxicity against human SH-SY5Y cells assessed as reduction in cell viability at 100 uM incubated for 48 hrs by MTT assay. It counts as toxicity, cell-based.
The species named for series [9] is Homo sapiens. In words: Binding affinity to N-terminal hexahistidine-tagged recombinant human Mint2-PARM (364 to 570 residues) assessed as change in entropy by ITC method.

*1 amine or outer side, *2 acyl side, *3 side chain or, on linkers, in order; H or OH if unused. Where a SMILES comes first, the peptide text is derived from it. Bridges are numbered along the chain shown (N, C = ends). Triazole bridges read from a SMILES are 1,4-linked. [ ]: non-standard residue; d: D form. The star is where a group is joined. Perfluorobiphenyl(4,4') = Fc1c(F)c([*:1])c(F)c(F)c1-c1c(F)c(F)c([*:2])c(F)c1F; Pyridine(2,6-diCH2) = c1cc(C[*:1])nc(C[*:2])c1; Lys(N3) = [N-]=[N+]=NCCCC[C@H](N)C(=O)O; NH(CH2CH2O)2(CH2)6Cl = ClCCCCCCOCCOCCN*; Orn(N3) = [N-]=[N+]=NCCC[C@H](N)C(=O)O; pXylylene = c1cc(C[*:2])ccc1C[*:1]; S8 = C=CCCCCCC[C@](C)(N)C(=O)O; Suc = O=C(CCC(=O)[*:2])[*:1]; S5 = C=CCCC[C@](C)(N)C(=O)O; Hpra = C#CCC[C@H](N)C(=O)O; Pra = C#CC[C@H](N)C(=O)O

Sequence of proteinase K (P06873 whole entry): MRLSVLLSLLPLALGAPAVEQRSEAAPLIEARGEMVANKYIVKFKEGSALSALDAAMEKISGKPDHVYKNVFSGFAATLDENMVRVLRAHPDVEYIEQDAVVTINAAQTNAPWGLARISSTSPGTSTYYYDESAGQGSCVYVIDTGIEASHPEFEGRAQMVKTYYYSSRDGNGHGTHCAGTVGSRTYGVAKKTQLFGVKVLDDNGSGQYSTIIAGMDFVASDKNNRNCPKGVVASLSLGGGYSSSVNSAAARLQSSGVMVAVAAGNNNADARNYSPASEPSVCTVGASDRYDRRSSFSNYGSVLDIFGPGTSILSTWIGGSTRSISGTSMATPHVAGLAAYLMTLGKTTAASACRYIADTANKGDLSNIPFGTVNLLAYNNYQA

For the compound `NCCCC[C@@H]1NC(=O)[C@H](Cc2ccc(O)cc2)NC(=O)[C@@H](NC(=O)[C@@H]2CCCN2C(=O)[C@H](CC(N)=O)NC(=O)[C@H](CCC(=O)O)NC(=O)[C@H](Cc2ccc(O)cc2)NC(=O)CNC(=O)[C@@H](N)CC(N)=O)CSc2c(F)c(F)c(c(F)c2F)-c2c(F)c(F)c(c(F)c2F)SC[C@@H](C(=O)N[C@@H](CCC(=O)O)C(=O)O)NC(=O)[C@H](Cc2ccccc2)NC1=O` (H-NGYENPCYKFCE-OH; linker 7-11 via Perfluorobiphenyl(4,4')), in series [1], the Ki was found to be 0.9 µM.
Turning to `NCCCC[C@@H]1NC(=O)[C@H](Cc2ccc(O)cc2)NC(=O)[C@@H](NC(=O)[C@@H]2CCCN2C(=O)[C@H](CC(N)=O)NC(=O)[C@H](CCC(=O)O)NC(=O)[C@H](Cc2ccc(O)cc2)NC(=O)CNC(=O)[C@@H](N)CC(N)=O)CSCc2ccc(cc2)CSC[C@@H](C(=O)N[C@@H](CCC(=O)O)C(=O)O)NC(=O)[C@H](Cc2ccccc2)NC1=O` (H-NGYENPCYKFCE-OH; linker 7-11 via pXylylene), in series [1], the Ki is 0.4 µM.
With `C[C@@]1(C(=O)N[C@@H](CCC(=O)O)C(=O)O)CCC/C=C\CCCCCC[C@](C)(NC(=O)[C@@H]2CCCN2C(=O)[C@H](CC(N)=O)NC(=O)[C@H](CCC(=O)O)NC(=O)[C@H](Cc2ccc(O)cc2)NC(=O)CNC(=O)[C@@H](N)CC(N)=O)C(=O)N[C@@H](Cc2ccc(O)cc2)C(=O)N[C@@H](CCCCN)C(=O)N[C@@H](Cc2ccccc2)C(=O)N1` (H-NGYENP[S8]YKF[S5]E-OH; staple (Z) 7-11), in [1], the Ki stood at 2.3 µM.
With `NCCCC[C@H]1NC(=O)[C@@H](Cc2ccc(O)cc2)NC(=O)[C@H](NC(=O)[C@@H]2CCCN2C(=O)[C@@H](CC(N)=O)NC(=O)[C@H](CCC(=O)O)NC(=O)[C@H](Cc2ccc(O)cc2)NC(=O)CNC(=O)[C@H](N)CC(N)=O)CC(=O)NCC[C@H](C(=O)N[C@H](CCC(=O)O)C(=O)O)NC(=O)[C@@H](Cc2ccccc2)NC1=O`, in series [1], the Ki was 214 µM.
On the same count and under the same terms, under `NCCCC[C@@H]1NC(=O)[C@H](Cc2ccc(O)cc2)NC(=O)[C@@H](NC(=O)[C@@H]2CCCN2C(=O)[C@H](CC(N)=O)NC(=O)[C@H](CCC(=O)O)NC(=O)[C@H](Cc2ccc(O)cc2)NC(=O)CNC(=O)[C@@H](N)CC(N)=O)CCCn2cc(nn2)CC[C@@H](C(=O)N[C@@H](CCC(=O)O)C(=O)O)NC(=O)[C@H](Cc2ccccc2)NC1=O` (H-NGYENP[Orn(N3)]YKF[Hpra]E-OH; triazole 7-11) stands 64.6 µM; under `C[C@@]1(C(=O)N[C@@H](CCC(=O)O)C(=O)O)CCCCCC/C=C/CCC[C@](C)(NC(=O)[C@@H]2CCCN2C(=O)[C@H](CC(N)=O)NC(=O)[C@H](CCC(=O)O)NC(=O)[C@H](Cc2ccc(O)cc2)NC(=O)CNC(=O)[C@@H](N)CC(N)=O)C(=O)N[C@@H](Cc2ccc(O)cc2)C(=O)N[C@@H](CCCCN)C(=O)N[C@@H](Cc2ccccc2)C(=O)N1` (H-NGYENP[S5]YKF[S8]E-OH; staple (E) 7-11), 0.8 µM.
In the case of `NCCCC[C@@H]1NC(=O)[C@H](Cc2ccc(O)cc2)NC(=O)[C@@H](NC(=O)[C@@H]2CCCN2C(=O)[C@H](CC(N)=O)NC(=O)[C@H](CCC(=O)O)NC(=O)[C@H](Cc2ccc(O)cc2)NC(=O)CNC(=O)[C@H](CC(N)=O)NC(=O)CCC(=O)NCCOCCOCCCCCCCl)CCSCc2ccc(cc2)CSCC[C@@H](C(=O)N[C@H](CCC(=O)O)C(=O)O)NC(=O)[C@H](Cc2ccccc2)NC1=O`, in series [2], the half-maximal effective concentration (EC50) was determined as 14.5 µM.
As to `NCCCC[C@@H]1NC(=O)[C@H](Cc2ccc(O)cc2)NC(=O)[C@@H](NC(=O)[C@@H]2CCCN2C(=O)[C@H](CC(N)=O)NC(=O)[C@H](CCC(=O)O)NC(=O)[C@H](Cc2ccc(O)cc2)NC(=O)CNC(=O)[C@@H](N)CC(N)=O)CCCCNC(=O)C[C@@H](C(=O)N[C@@H](CCC(=O)O)C(=O)O)NC(=O)[C@H](Cc2ccccc2)NC1=O` (H-NGYENPKYKFDE-OH; lactam 7-11), the Ki in series [1] came out at 1 µM. Further, in [3], the Kd is 5.77 µM. Also, the half-life at 100 µM was over 2 h in series [4], 0.45 h in series [5] and over 2 h in series [6]. The half-life at 500 µM in series [7] came out at 1.18 h. The EC50 in [2] turned out to be 77.9 µM.
For the compound `NCCCC[C@H](NC(=O)[C@H](Cc1ccc(O)cc1)NC(=O)[C@H](CS)NC(=O)[C@@H]1CCCN1C(=O)[C@H](CC(N)=O)NC(=O)[C@H](CCC(=O)O)NC(=O)[C@H](Cc1ccc(O)cc1)NC(=O)CNC(=O)[C@@H](N)CC(N)=O)C(=O)N[C@@H](Cc1ccccc1)C(=O)N[C@@H](CS)C(=O)N[C@@H](CCC(=O)O)C(=O)O` (H-NGYENPCYKFCE-OH), the Ki in series [1] is 21.4 µM.
With H-NGYENPTYKFFE-OH, the Ki in series [1] came out at 4 µM. For the same compound, in series [8], the Activity was 20%. In addition, the half-life at 100 µM in [4] came out at 0.43 h.
As to `NCCCC[C@@H]1NC(=O)[C@H](Cc2ccc(O)cc2)NC(=O)[C@@H](NC(=O)[C@@H]2CCCN2C(=O)[C@H](CC(N)=O)NC(=O)[C@H](CCC(=O)O)NC(=O)[C@H](Cc2ccc(O)cc2)NC(=O)CNC(=O)[C@@H](N)CC(N)=O)CCCCn2cc(nn2)C[C@@H](C(=O)N[C@@H](CCC(=O)O)C(=O)O)NC(=O)[C@H](Cc2ccccc2)NC1=O` (H-NGYENP[Lys(N3)]YKF[Pra]E-OH; triazole 7-11), the Ki in series [1] was determined as 1.2 µM. Further, the Kd in series [3] amounted to 1 µM. Besides, the results for the half-life at 100 µM in series [4], in [5] and in series [6] were over 2 h, 0.333 h and 0.467 h, respectively. In addition, in series [7], the half-life at 500 µM worked out at 0.675 h. The EC50 in [2] stood at 42.9 µM.
As for `C[C@@H](O)[C@H](NC(=O)[C@@H]1CCCN1C(=O)[C@H](CC(N)=O)NC(=O)[C@H](CCC(=O)O)NC(=O)[C@H](Cc1ccc(O)cc1)NC(=O)CNC(=O)[C@H](CC(N)=O)NC(=O)CCC(=O)NCCOCCOCCCCCCCl)C(=O)N[C@@H](Cc1ccc(O)cc1)C(=O)N[C@@H](CCCCN)C(=O)N[C@@H](Cc1ccccc1)C(=O)N[C@@H](Cc1ccccc1)C(=O)N[C@@H](CCC(=O)O)C(=O)O` ({NH(CH2CH2O)2(CH2)6Cl-Suc}-NGYENPTYKFFE-OH), the EC50 in series [2] came to 42 µM.
Take `C[C@@]1(C(=O)N[C@@H](CCC(=O)O)C(=O)O)CCC/C=C\CCC[C@](C)(NC(=O)[C@@H]2CCCN2C(=O)[C@H](CC(N)=O)NC(=O)[C@H](CCC(=O)O)NC(=O)[C@@H](Cc2ccc(O)cc2)NC(=O)CNC(=O)[C@H](N)CC(N)=O)C(=O)N[C@@H](Cc2ccc(O)cc2)C(=O)N[C@@H](CCCCN)C(=O)N[C@@H](Cc2ccccc2)C(=O)N1`: the Ki in series [1] came out at 0.5 µM. For the same compound, in series [3], the Kd is 0.24 µM. The half-life at 100 µM in series [4], in [5] and in series [6] was over 2 h each time. The half-life at 500 µM in series [7] was found to be 2.02 h. Moreover, the TdeltaS in series [9] was -1.44 kcal/mol. For the same compound, the EC50 in series [2] amounted to 33.3 µM.
Take `NCCCC[C@@H]1NC(=O)[C@H](Cc2ccc(O)cc2)NC(=O)[C@@H](NC(=O)[C@H]2CCCN2C(=O)[C@H](CC(N)=O)NC(=O)[C@@H](CCC(=O)O)NC(=O)[C@@H](Cc2ccc(O)cc2)NC(=O)CNC(=O)[C@@H](N)CC(N)=O)CCSCc2ccc(cc2)CSCC[C@@H](C(=O)N[C@@H](CCC(=O)O)C(=O)O)NC(=O)[C@H](Cc2ccccc2)NC1=O`: the TdeltaS in series [9] is -2.03 kcal/mol.
As for `NCCCC[C@@H]1NC(=O)[C@H](Cc2ccc(O)cc2)NC(=O)[C@@H](NC(=O)[C@@H]2CCCN2C(=O)[C@H](CC(N)=O)NC(=O)[C@H](CCC(=O)O)NC(=O)[C@H](Cc2ccc(O)cc2)NC(=O)CNC(=O)[C@@H](N)CC(N)=O)CCSCc2ccc(cc2)CSCC[C@@H](C(=O)N[C@@H](CCC(=O)O)C(=O)O)NC(=O)[C@H](Cc2ccccc2)NC1=O`, the Ki in series [1] is 0.3 µM. For the same compound, the Kd in series [3] was determined as 1.04 µM. In addition, the half-life at 100 µM in series [4], in [5] and in series [6] was over 2 h throughout. In [7], the half-life at 500 µM is 1.5 h. For the same compound, the EC50 in series [2] came out at 14.5 µM.
For `C[C@@]1(C(=O)N[C@H](CCC(=O)O)C(=O)O)CCC/C=C\CCC[C@](C)(NC(=O)[C@@H]2CCCN2C(=O)[C@H](CC(N)=O)NC(=O)[C@H](CCC(=O)O)NC(=O)[C@H](Cc2ccc(O)cc2)NC(=O)CNC(=O)[C@H](CC(N)=O)NC(=O)CCC(=O)NCCOCCOCCCCCCCl)C(=O)N[C@@H](Cc2ccc(O)cc2)C(=O)N[C@@H](CCCCN)C(=O)N[C@@H](Cc2ccccc2)C(=O)N1`, in [2], the EC50 came out at 77.9 µM.
On to `NCCCC[C@@H]1NC(=O)[C@H](Cc2ccc(O)cc2)NC(=O)[C@@H](NC(=O)[C@@H]2CCCN2C(=O)[C@H](CC(N)=O)NC(=O)[C@H](CCC(=O)O)NC(=O)[C@H](Cc2ccc(O)cc2)NC(=O)CNC(=O)[C@@H](N)CC(N)=O)CSCc2cccc(n2)CSC[C@@H](C(=O)N[C@@H](CCC(=O)O)C(=O)O)NC(=O)[C@H](Cc2ccccc2)NC1=O` (H-NGYENPCYKFCE-OH; linker 7-11 via Pyridine(2,6-diCH2)), for which the Ki in series [1] came out at 6.5 µM.

As a reminder, the Ki is a dissociation constant, usually derived from enzyme kinetics or from competition with a known ligand. The term EC50 denotes the concentration that produces a half-maximal response. A word on the Kd: it is the free concentration of one partner at which half of the binding sites on the other are occupied at equilibrium, for simple one-to-one binding. The term half-life denotes the time needed for the level to fall by half in the phase considered.

(Values after ChEMBL document CHEMBL5380799, “Comprehensive Peptide Cyclization Examination Yields Optimized APP Scaffolds with Improved Affinity toward Mint2” (J Med Chem, 2023).)
